# Test results: patent publication US10925884B2, “Methods of diagnosing and treating hepatocellular carcinoma” (MacKay Memorial Hospital, priority 2017, dated 2021)
# Assays:
# Mahlavu cells [1] = experiment: Colony forming assay, Mahlavu cells; assay type: cell-based, Human; conditions: various dosage of trilostane, 10 to 13 days, FIG. 2A
# Experimental: (§1) Human HCC cancer cell lines (including Mahlavu, Hep3B, and Huh7) were cultured in Dulbecco's modified Eagle medium (DMEM), supplemented with 10% (v/v) fetal bovine serum and antibiotics (100 units/mL penicillin, 100 μg/mL streptomycin, and 2.5 μg/mL amphotericin B). All cell lines have been periodically authenticated by short tandem repeat analysis at Bioresource Collection and Research Center, Hsinchu, Taiwan (R.O.C.) and tested for being mycoplasma free. Trilostane was purchased from LKT Laboratories, St. Paul, Minn. A total of 500 Mahlavu or Hep3B HCC cancer cells were seeded into 6-well plate and treated with various dosage of trilostane. The medium was replaced every 3 days. After 10 to 13 days, colonies were stained with 3% crystal violet and examined by microscopy. Colonies containing at least 50 individual cells were counted.
# Hep3B cells [2] = experiment: Colony forming assay, Hep3B cells; assay type: cell-based, Human; conditions: various dosage of trilostane, 10 to 13 days, FIG. 2B
# Experimental: as §1
# Mahlavu cells [3] = experiment: Wound healing assay, Mahlavu cells; assay type: cell-based, Human; conditions: 24 hours, FIG. 2C
# Experimental: (§2) Human HCC cancer cell lines (including Mahlavu, Hep3B, and Huh7) were cultured in Dulbecco's modified Eagle medium (DMEM), supplemented with 10% (v/v) fetal bovine serum and antibiotics (100 units/mL penicillin, 100 μg/mL streptomycin, and 2.5 μg/mL amphotericin B). All cell lines have been periodically authenticated by short tandem repeat analysis at Bioresource Collection and Research Center, Hsinchu, Taiwan (R.O.C.) and tested for being mycoplasma free. Trilostane was purchased from LKT Laboratories, St. Paul, Minn. Mahlavu and Hep3B cells (2×10^5 cells/well) were seeded into 6-well plates and grown to confluence overnight. A wound was made by scraping with a sterilized 200-μL pipette tip in the middle of the cell monolayer, and the cells were allowed to migrate to the denuded area for 24 hours. The percentage of wound closure was measured using Olympus IX71 light microscope (Olympus, Tokyo, Japan).
# Hep3B cells [4] = experiment: Wound healing assay, Hep3B cells; assay type: cell-based, Human; conditions: 24 hours, FIG. 2D
# Experimental: as §2
# mahlave cells = experiment: Transwell migration assay; assay type: cell-based, Human; conditions: FIG. 2E
# [5] = system: phosphorylated MEKK1 (p-MEKK1); experiment: Western blot analysis of p-MEKK1 in Mahlavu cells; assay type: cell-based, Human; conditions: Mahlavu cells after trilostane treatment, FIG. 3
# Experimental: (§3) Total cellular proteins were extracted, quantified, and subject to gel electrophoresis. Whole-cell lysates were isolated from Mahlavu cells. Equal amounts of proteins (40 μg/lane) were electrophoresed in 10% sodium dodecyl sulfatepolyacrylamide gel. The transferred membrane was blocked with 5% defatted milk and immunoblotted with primary antibodies against various proteins, including ERK (total form), p-ERK, p-AKT, E-cadherin, N-cadherin, Snail1, Twist, Vimentin, MLC II (total form), p-MLC II, ROCK, and GAPDH at room temperature for 3 hours. The antigen-antibody complexes were visualized with by chemiluminescence with the Amersham ECL detection system (GE Healthcare, Piscataway, N.J.).
# [6] = system: phosphorylated ERK (p-ERK); experiment: Western blot analysis of p-ERK in Mahlavu cells; assay type: cell-based, Human; conditions: Mahlavu cells after trilostane treatment, FIG. 3
# Experimental: as §3
# Mahlavu cells [7] = experiment: In vivo xenograft model of HCC; conditions: Mahlavu xenograft in BALB/c nude mice, 30 or 60 mg/kg intraperitoneally every day for 18 days; FIG. 4
# Experimental: All animal experiments were approved by the Institutional Animal Care and Use Committee of MacKay Memorial Hospital (Taiwan, R.O.C.). 6-week-old male BALB/c nude mice were injected subcutaneously with 1.0×10^7 Mahlavu cells into the bilateral back pad. When the tumor growth reached 50 mm^3, mice were randomly divided into three groups (n=5 mice each group): (1) low-dose group, in which 30 mg/kg of trilostane was intraperitoneally administered to the mouse every day for 18 days; (2) high-dose group, in which 60 mg/kg of trilostane was intraperitoneally administered to the mouse every day for 18 days; and (3) control group, in which vehicle control (Dimethyl sulfoxide, DMSO) of the same volume was intraperitoneally administered to the mouse every day for 18 days. The tumor volume was measured twice a week by the same investigator, and mice were sacrificed when tumors reached 10% of body weight.
compound,measurement,setting,value
C[C@]12CC[C@H]3[C@@H](CC[C@@]45O[C@@H]4C(O)=C(C#N)C[C@]35C)[C@@H]1CC[C@@H]2O [trilostane],colony numbers,Mahlavu cells [1],decreased colony numbers
same,colony numbers,Hep3B cells [2],decreased colony numbers
same,wound closure,Mahlavu cells [3],significantly inhibited the wound closure
same,wound closure,Hep3B cells [4],significantly inhibited the wound closure
same,cell migration,mahlave cells,inhibitory effect
same,expression of phosphorylated MEKK1 (p-MEKK1),[5],down-regulated
same,expression of phosphorylated ERK (p-ERK),[6],down-regulated
same,tumor growth rate,Mahlavu cells [7],significantly suppressed
